≈ marks a conversion by molar mass, not a printed value.
What was measured:
S. aureus = details: Shaarei-Zedek Jerusalem Medical Center Database; cited from earlier work
[1] = Stability of entrapped Doxycycline during hydration in FBS solution at 37° C.; type: physicochemical; details: after hydration for 21 days, matrix: released+reservoir
Procedure: Doxycycline is known to degenerate under hydrating conditions. The matrix composition of the present invention can protect Doxycycline from this degradation. The stability of the entrapped Doxycycline during the hydration of the matrix composition (in FBS solution at 37° C.) was tested. At each time point two parameters were tested: 1) Doxycycline molecules released from the medical device of the invention and 2) Doxycycline molecules reservoir in the medical device of the invention. The latter was extracted from the formulation using methylene chloride. The sum of the two Doxycycline quantities represents the overall quantity of Doxycycline in the product at each time point. Free Doxycycline, incubated under the same conditions, was used as control. Results are plotted in FIG. 3.

[2] = tested on: Staphylococcus aureus (ATCC 25923); assay: Antibacterial activity of Doxycycline released from coated bone particles; type: cell-based; details: ATCC25923, released at different time points over 30 days following hydration
Procedure: The antibacterial activity against Staphylococcus aureus (ATCC 25923), of Doxycycline that was released from bone particles coated with the matrix composition of the invention was followed for a period of 30 days following its hydration (FIG. 4). The MIC (Minimal Inhibitory Concentration) for Doxycycline that was released from the matrix composition at different time points was calculated to be ˜1 μg/ml, and MIC 50 (the concentration that inhibits 50% growth) was ˜0.1 μg/ml, values that were similar to the control free Doxycycline.

| Molecule | isolated S. aureus sub species in the clinic resistant to the antibiotic (S. aureus) | overall doxycycline remaining intact, of the initial dose [1] | MIC50 ([2]; read-out: MIC 50 (the concentration that inhibits 50% growth)) | MIC ([2]; read-out: MIC (Minimal Inhibitory Concentration)) |
| --- | --- | --- | --- | --- |
| gentamicin | 30-40% | – | – | – |
| penicillin | more than 50% | – | – | – |
| C[C@H]1c2cccc(O)c2C(=O)C2=C(O)[C@]3(O)C(=O)C(C(N)=O)=C(O)[C@@H](N(C)C)[C@@H]3[C@@H](O)[C@@H]21 [free Doxycycline, Doxycycline] | – | 20% | ~0.1 µg/mL (≈ 0.225 µM) | ~1 µg/mL (≈ 2.25 µM) |

Source: patent US9173976B2, “Compositions and methods for the treatment of bone voids and open fractures” (POLYPID LTD., priority 2012, dated 2015)
